Reference: article PMC3430861, “The pharmacological profile of ELIC, a prokaryotic GABA-gated receptor” (Neuropharmacology, 2012)

Target: T1, ELIC (Dickeya chrysanthemi, UniProt P0C7B7, INS163G)
T1 construct: expressed in transfected cells; host or cells: Xenopus laevis oocytes injected with cRNA
Assay: cell-based
Assay type: cell-based, Erwinia chrysanthemi
Experimental: Xenopus laevis oocyte-positive females were purchased from NASCO (Fort Atkinson, Wisconsin, USA) and maintained according to standard methods.
The ELIC sequence (Genbank accession number POC7B7) was purchased from Genscript as a synthetic gene with optimized codon usage for expression in Escherichia coli. […] Stage V and VI oocytes were injected with 20 ng cRNA, and currents recorded 1–3 days post-injection.

## C[C@H](N)C(=O)O [Alanine]
  EC50: > 10 mM

## N=C(N)NCCC[C@H](N)C(=O)O [Arginine]
  EC50: > 10 mM

## NC(=O)C[C@H](N)C(=O)O [Asparagine]
  EC50: > 10 mM

## N[C@@H](CC(=O)O)C(=O)O [Aspartate]
  EC50: > 10 mM

## N[C@@H](CS)C(=O)O [Cysteine]
  EC50: > 10 mM

## NC(=O)CC[C@H](N)C(=O)O [Glutamine]
  EC50: > 10 mM

## N[C@@H](Cc1c[nH]cn1)C(=O)O [Histidine]
  EC50: > 10 mM

## CC[C@H](C)[C@H](N)C(=O)O [Isoleucine]
  EC50: > 10 mM

## N[C@@H](CCC(=O)O)C(=O)O [L-glutamate]
  EC50: > 10 mM

## CC(C)C[C@H](N)C(=O)O [Leucine]
  EC50: > 10 mM

## NCCCC[C@H](N)C(=O)O [Lysine]
  EC50: > 10 mM

## CSCC[C@H](N)C(=O)O [Methionine]
  EC50: > 10 mM

## N[C@@H](Cc1ccccc1)C(=O)O [Phenylalanine]
  EC50: > 10 mM

## O=C(O)[C@@H]1CCCN1 [Proline]
  EC50: > 10 mM

## N[C@@H](CO)C(=O)O [Serine]
  EC50: > 10 mM

## C[C@@H](O)[C@H](N)C(=O)O [Threonine]
  EC50: > 10 mM

## N[C@@H](Cc1c[nH]c2ccccc12)C(=O)O [Tryptophan]
  EC50: > 10 mM

## N[C@@H](Cc1ccc(O)cc1)C(=O)O [Tyrosine]
  EC50: > 10 mM

## CC(C)[C@H](N)C(=O)O [Valine]
  EC50: > 10 mM

## NCc1cc(=O)[nH]o1 [muscimol]
  EC50: > 10 mM

## O=C(O)[C@@H]1CCC(O)=N1 [pyroglutamate]
  EC50: > 10 mM

## O=C(O)CCC(=O)O [succinic acid]
  EC50: > 10 mM

## NCCC(=O)O [β-alanine]
  EC50: > 10 mM

## O=C1CCCO1 [γ-butyrolactone]
  EC50: > 10 mM
